This note sets out measurements from patent US6730694B1, “sPLA2 inhibitors” (Eli Lilly and Company, priority 2003, dated 2004).

Data set [1] deals with T1, recombinant human secreted phospholipase A2 (Homo sapiens, UniProt P14555).
T1 sequence (P14555 21-144): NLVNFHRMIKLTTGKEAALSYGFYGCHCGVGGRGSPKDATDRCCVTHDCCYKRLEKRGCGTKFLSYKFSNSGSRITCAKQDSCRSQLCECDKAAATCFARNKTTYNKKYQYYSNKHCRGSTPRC
Kind of data set: Chromogenic assay of recombinant human secreted phospholipase A2 inhibition. The format is biochemical. To be noted: diheptanoyl thio-PC substrate, pH 7.5, 40° C., 30 minutes, absorbance at 405 nanometers; read-out: Inhibition of human secreted PLA2 IC50 ± mean deviation (3-4 tests). The text has this: The following chromogenic assay procedure was used to identify and evaluate inhibitors of recombinant human secreted phospholipase A2. The assay described herein has been adapted for high volume screening using 96 well microtiter plates. A general description of this assay method is found in the article, “Analysis of Human Synovial Fluid Phospholipase A2 on Short Chain Phosphatidylcholine-Mixed Micelles: Development of a Spectrophotometric Assay Suitable for a Microtiterplate Reader”, by Laure J. Reynolds, Lori L. Hughes, and Edward A Dennis, Analytical Biochemistry, 204, pp. 190-197, 1992 (the disclosure of which is incorporated herein by reference):
Adjust pH to 4.5 with acetic acid […]
A measured volume of racemic dipheptanoyl thio PC supplied in chloroform at a concentration of 100 mg/ml is taken to dryness and redissolved in 10 millimolar […]
5. Read absorbance of wells at 405 nanometers with an automatic plate reader.
All compounds were tested in triplicate. […] Compounds initially found to be active were reassayed to confirm their activity and, if sufficiently active, IC50 values were determined. […] In all cases, % inhibition measured at 405 nanometers generated by enzyme reactions containing inhibitors relative to the uninhibited control reactions was determined. […] IC50 values were determined by plotting log concentration versus inhibition values in the range from 10-90% inhibition.

pIC50: −log10 of the molar value.

For the compound `CCc1c(C(=O)C(N)=O)c2ccsc2n1Cc1ccccc1` [Example 1, 2-(6-Benzyl-5-ethyl-6H-thieno[2,3-b]pyrrol-4-yl)-2-oxoacetamide], the melting point (in general, the temperature of the solid-liquid transition) fell in the range of 169 to 172 °C. In data set [1], the pIC50 – broadly, the negative decadic logarithm of the IC50, by convention in mol/L – is 5.26.
